Source: PubChem BioAssay AID1671246
pIC50: −log10 of the molar value.

Biological target: Casein kinase I isoform gamma-1 (Homo sapiens) (UniProt Q9HCP0)
Test: CSNK1G1 kinase inhibitors, dose response, biochemical, Z'-LYTE, FRET, protease-coupled, direct format (AID 1671246)
Settings: Z'-LYTE FRET kinase activity, recombinant CSNK1G1

Sequence of Casein kinase I isoform gamma-1 (Homo sapiens) (Q9HCP0 whole entry, looked up, canonical isoform): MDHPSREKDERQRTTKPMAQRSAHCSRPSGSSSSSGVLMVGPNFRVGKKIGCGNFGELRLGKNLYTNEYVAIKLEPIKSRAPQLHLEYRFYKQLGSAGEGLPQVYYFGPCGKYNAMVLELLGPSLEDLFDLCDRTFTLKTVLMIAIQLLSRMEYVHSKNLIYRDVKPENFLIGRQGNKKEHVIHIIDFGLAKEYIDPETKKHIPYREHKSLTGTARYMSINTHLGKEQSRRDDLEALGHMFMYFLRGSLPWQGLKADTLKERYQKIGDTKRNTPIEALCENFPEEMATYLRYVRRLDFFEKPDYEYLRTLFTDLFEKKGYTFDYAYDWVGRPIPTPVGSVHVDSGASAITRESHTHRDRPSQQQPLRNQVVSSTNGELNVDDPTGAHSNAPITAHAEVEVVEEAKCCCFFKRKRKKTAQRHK

Compound: CN1C(=O)C2(Cc3cn(C45CC67SSC(CO)(C(=O)N6C4Nc4ccccc45)N(C)C7=O)c4ccccc34)SSC1(CO)C(=O)N2C (stereo unspecified)
- pIC50: 6.96
